Data set [1] has as its target Kappa-type opioid receptor (Homo sapiens, UniProt P41145). The experiment in a line: Displacement of [3H]U69593 from human KOR expressed in HEK cell membranes assessed as inhibition constant incubated for 60 mins by microbeta 2 scintillation counting method. Also noted: species or system Cell membrane. Background: Loss of bound radioactivity is the signal in a displacement assay; it reports binding, not function.

In data set [2] the target is Delta-type opioid receptor (Homo sapiens, UniProt P41143). The experiment in a line: Displacement of [3H]DADLE from human DOR expressed in CHO cell membranes assessed as inhibition constant incubated for 60 mins by microbeta 2 scintillation counting method. Also on record: species or system Cell membrane.
Data set [3] addresses Mu-type opioid receptor (Homo sapiens, UniProt P35372). Kind of data set: Displacement of [3H]DAMGO from human MOR expressed in CHO cell membranes assessed as inhibition constant incubated for 60 mins by microbeta 2 scintillation counting method. Also noted: species or system Cell membrane.
Data set [4] relates to BEND3. Kind of data set: Apparent permeability coefficient of the compound across blood brain barrier in mouse BEND3 cells at 10 ug/ml measured upto 120 mins by LC-MS/MS analysis. It is filed as functional, cell-based. Conditions: dose 10.0 µg/ml.
A short description of data set [5]: Metabolic stability in CD-1 mouse plasma assessed as half life at 100 uM measured upto 24 hrs by LC-MS/MS analysis. It is filed as ADME, cell-free.
For data set [6], the species on record is Homo sapiens. Kind of data set: Selectivity ratio of Ki for displacement of [3H]DAMGO from human MOR expressed in CHO cell membranes to Ki for displacement of [3H]U69593 from human KOR expressed in HEK cell membranes.
The nature of data set [7]: Metabolic stability in Sprague-Dawley rat plasma assessed as half life at 100 uM measured upto 24 hrs by LC-MS/MS analysis. In kind it is ADME, cell-free.
A short description of data set [8]: Metabolic stability in human plasma assessed as half life at 100 uM measured upto 24 hrs by LC-MS/MS analysis. In kind it is ADME, cell-free. Conditions: 24 h, 100 µM.
The species named for data set [9] is Homo sapiens. Kind of data set: Selectivity ratio of Ki for displacement of [3H]DADLE from human DOR expressed in CHO cell membranes to Ki for displacement of [3H]U69593 from human KOR expressed in HEK cell membranes.
Data set [10] can be described thus: Plasma protein binding in human assessed as bound fraction at 1 uM by LC-MS/MS analysis. It is filed as ADME, cell-free.
The nature of data set [11]: Plasma protein binding in dog assessed as bound fraction at 1 uM by LC-MS/MS analysis. In kind it is ADME, cell-free, Canis lupus familiaris.
Data set [12] can be described thus: Metabolic stability in Sprague-Dawley rat liver microsomes assessed as intrinsic clearance at 100 uM measured upto 24 hrs in presence of NADPH by LC-MS/MS analysis. It is filed as ADME, Microsome. A general note: Liver microsomes are a subcellular fraction often used to study metabolism.
A short description of data set [13]: Metabolic stability in Beagle dog plasma assessed as half life at 100 uM measured upto 24 hrs by LC-MS/MS analysis. In kind it is ADME, cell-free, Canis lupus familiaris. The settings on record: 24 h, 100 µM.

Each structure is given as a SMILES string. Square brackets hold non-standard residues; d marks the D form. Peptide text beside a SMILES is read from it. * marks the point of attachment. ξ: configuration not given here. ξPhe(3-OMe) = COc1cccc(CC(N)C(=O)O)c1; ξPhe(2-I) = NC(Cc1ccccc1I)C(=O)O; Nphe = O=C(O)CNCc1ccccc1; Boc = CC(C)(C)OC(=O)* A value given as a limit tells only on which side of the number the result lay.

Chain of Mu-type opioid receptor (P35372 whole entry): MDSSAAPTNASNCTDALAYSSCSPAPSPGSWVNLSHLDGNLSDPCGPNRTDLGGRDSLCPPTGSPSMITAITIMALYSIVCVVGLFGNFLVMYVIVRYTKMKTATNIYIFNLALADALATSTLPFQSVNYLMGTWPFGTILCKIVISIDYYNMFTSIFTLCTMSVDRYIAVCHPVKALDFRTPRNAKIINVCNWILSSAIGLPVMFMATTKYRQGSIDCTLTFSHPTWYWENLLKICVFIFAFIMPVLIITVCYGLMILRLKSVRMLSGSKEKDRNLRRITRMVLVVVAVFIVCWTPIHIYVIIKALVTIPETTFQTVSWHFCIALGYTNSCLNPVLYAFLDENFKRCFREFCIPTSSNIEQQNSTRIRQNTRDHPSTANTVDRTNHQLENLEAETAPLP
Chain of Delta-type opioid receptor (P41143 whole entry): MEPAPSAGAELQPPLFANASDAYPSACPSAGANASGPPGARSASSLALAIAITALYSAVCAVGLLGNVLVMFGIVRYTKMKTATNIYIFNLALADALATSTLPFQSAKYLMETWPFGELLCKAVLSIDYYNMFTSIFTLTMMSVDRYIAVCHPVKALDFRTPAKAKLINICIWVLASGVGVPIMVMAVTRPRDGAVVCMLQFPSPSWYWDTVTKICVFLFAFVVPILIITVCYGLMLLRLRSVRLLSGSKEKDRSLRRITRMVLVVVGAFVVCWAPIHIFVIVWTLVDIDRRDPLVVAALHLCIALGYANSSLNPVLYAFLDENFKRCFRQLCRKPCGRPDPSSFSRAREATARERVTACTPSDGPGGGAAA
Chain of Kappa-type opioid receptor (P41145 whole entry): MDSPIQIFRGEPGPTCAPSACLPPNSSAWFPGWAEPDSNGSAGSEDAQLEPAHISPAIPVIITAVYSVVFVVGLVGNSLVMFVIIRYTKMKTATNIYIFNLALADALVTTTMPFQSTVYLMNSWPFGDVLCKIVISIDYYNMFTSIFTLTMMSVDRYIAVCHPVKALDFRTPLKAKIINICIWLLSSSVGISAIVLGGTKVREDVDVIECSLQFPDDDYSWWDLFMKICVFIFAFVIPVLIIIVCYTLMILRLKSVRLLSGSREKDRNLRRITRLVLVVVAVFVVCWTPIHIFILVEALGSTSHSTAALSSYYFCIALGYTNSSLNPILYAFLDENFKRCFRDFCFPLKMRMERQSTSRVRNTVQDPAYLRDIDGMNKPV

As a reminder, the Ki is a measure of affinity in units of concentration, obtained from inhibition or displacement. Turning to `COC(=O)C(Cc1cc(OC)cc(OC)c1I)NC(=O)CNCc1ccccc1` (configuration not stated), the Ki in [1], in data set [2] and in data set [3] was greater than 10 µM in each case.
Consider `O=C1OC2(c3ccc(O)cc3Oc3cc(O)ccc32)c2ccccc21`, for which the Pe in data set [4] was 0.95 10^-3cm/min.
With `COC(=O)C(Cc1cccc(OC)c1I)NC(=O)CN(Cc1ccccc1)C(=O)OC(C)(C)C` (configuration not stated), the Ki in [1], in data set [2] and in data set [3] was greater than 10 µM each time.
The term half-life denotes the time needed for the level to fall by half in the phase considered. Take `COC(=O)C(Cc1cccc(OC)c1I)NC(=O)CNCc1ccccc1` (configuration not stated): the half-life at 100 µM in data set [5] and in [7] was less than 1 min throughout. The results for the Ki in data set [1], in data set [2] and in data set [3] were 0.277 µM, greater than 10 µM and greater than 10 µM, respectively. Further, the Ratio Ki in [6] and in data set [9] was greater than 36 each time. Further, the values for the t1/2 in data set [8] and in data set [13] were 2.1762 h and 3.6808 h, respectively. For the same compound, the PPB in [10] is given as 90.8%; in data set [11], 97.09%. In addition, the Intrinsic clearance in data set [12] is 1928 µL/min/mg. The Pe in [4] was 8.75 10^-3cm/min.
In the case of `CNCC(=O)NC(Cc1cccc(OC)c1I)C(=O)OC` (configuration not stated), the Ki in data set [1], in data set [2] and in data set [3] was greater than 10 µM throughout.
On to `COC(=O)C(Cc1cccc(OC)c1)NC(=O)CNCc1ccccc1` (configuration not stated) (H-[Nphe]-[ξPhe(3-OMe)]-OMe), for which the Ki in data set [1], in data set [2] and in data set [3] was greater than 10 µM each time.
`COC(=O)C(Cc1cccc(OC)c1I)NC(=O)CNCc1cccnc1` (configuration not stated): the Ki in data set [1], in [2] and in data set [3] was greater than 10 µM throughout.
For `COc1cccc(CC2NC(=O)[C@@H]3CCCN3C2=O)c1I` (some centres not stated), the Ki in data set [1], in data set [2] and in data set [3] was greater than 10 µM in each case.
On to `COc1cccc(CC2NC(=O)CN(CCCc3ccccc3)C2=O)c1I` (configuration not stated), for which the Ki was 7 µM in data set [1], greater than 10 µM in data set [2] and greater than 10 µM in data set [3]. Moreover, the Ratio Ki in [6] and in data set [9] was greater than 1.4 in each case.
Consider `COC(=O)C(Cc1ccccc1I)NC(=O)CNCc1ccccc1` (configuration not stated) (H-[Nphe]-[ξPhe(2-I)]-OMe), for which the Ki in data set [1], in data set [2] and in data set [3] was greater than 10 µM in each case.
On to `COc1cccc(CC(NC(=O)CNCc2ccccc2)C(=O)OC(C)C)c1I` (configuration not stated), for which the Ki in data set [1] was 1.44 µM; in data set [2] it was greater than 10 µM; in [3] it was greater than 10 µM. For the same compound, the Ratio Ki in [6] and in [9] was greater than 7 throughout.
On to `COc1cccc(CC2NC(=O)[C@H](Cc3ccccc3)NC2=O)c1I` (some centres not stated), for which the inhibition constant (Ki) in data set [1], in [2] and in [3] was greater than 10 µM each time.
Regarding `COC(=O)C(Cc1cccc(OC)c1I)NC(=O)CN(C)C(=O)OC(C)(C)C` (configuration not stated), the Ki in data set [1], in data set [2] and in data set [3] was greater than 10 µM in each case.
As to `COc1cccc(CC2NC(=O)CN(Cc3cccnc3)C2=O)c1I` (configuration not stated), the Ki in data set [1], in [2] and in data set [3] was greater than 10 µM each time.
Regarding `O=C1CN(Cc2ccccc2)C(=O)C(Cc2cccc(O)c2I)N1` (configuration not stated), the Ki in data set [1], in data set [2] and in data set [3] was greater than 10 µM each time.
For the compound `COC(=O)C(Cc1cccc(OC)c1I)NC(=O)CN(C)Cc1ccccc1` (configuration not stated), the Ki in [1] was 0.256 µM; in [2], greater than 10 µM; in [3], greater than 10 µM. Also, the Ratio Ki in data set [6] and in data set [9] was greater than 40 throughout.
Take `COc1cccc(CC2NC(=O)CNC2=O)c1I` (configuration not stated): the Ki in data set [1], in [2] and in [3] was greater than 10 µM throughout.
`COC(=O)C(Cc1ccccc1I)NC(=O)CN(Cc1ccccc1)C(=O)OC(C)(C)C` (configuration not stated) (Boc-[Nphe]-[ξPhe(2-I)]-OMe): the Ki in data set [1] is 4.18 µM; in data set [2] it was greater than 10 µM; in data set [3], 4.38 µM.
For `COc1cccc(CC(NC(=O)CNCc2ccccc2)C(=O)O)c1I` (configuration not stated), in that order: greater than 10 µM, greater than 10 µM and greater than 10 µM.
Consider `COC(=O)C(Cc1cccc(OC)c1I)NC(=O)CNC(C)c1ccccc1` (configuration not stated), for which the inhibition constant Ki in [1] is 0.765 µM; in [2], greater than 10 µM; in data set [3] it was greater than 10 µM. For the same compound, the Ratio Ki in data set [6] and in data set [9] was greater than 13 in each case.
Consider `COC(=O)C(Cc1cccc(OC)c1C)NC(=O)CNCc1ccccc1` (configuration not stated), for which the half-life at 100 µM in [5] and in [7] was less than 1 min throughout. For the same compound, the values for the Ki in data set [1], in [2] and in data set [3] were 0.19 µM, greater than 10 µM and greater than 10 µM, respectively. Further, the Ratio Ki in [6] and in [9] was greater than 53 throughout. Further, the values for the t1/2 in data set [8] and in data set [13] were 2.5282 h and 4.321 h, respectively. Also, the PPB in [10] amounted to 89.36%; in data set [11], 94.28%. For the same compound, the Intrinsic clearance in data set [12] amounted to 1112 µL/min/mg. The Pe in data set [4] was 6.25 10^-3cm/min.
Turning to `COC(=O)C(Cc1cccc(OC)c1I)NC(=O)CCNCc1ccccc1` (configuration not stated), the Ki was 1.23 µM in [1], greater than 10 µM in data set [2] and greater than 10 µM in [3]. The Ratio Ki in [6] and in [9] was greater than 8 in each case.
Take `COC(=O)C(Cc1cccc(OC)c1I)NC(=O)CN` (configuration not stated): the Ki in data set [1], in data set [2] and in [3] was greater than 10 µM throughout.
As to `Cn1c(=O)c2c(ncn2C)n(C)c1=O`, the Pe in [4] is 28.1 10^-3cm/min.
Regarding `Cc1cccc(CC2NC(=O)CN(Cc3ccccc3)C2=O)c1I` (configuration not stated), the Ki in data set [1], in data set [2] and in data set [3] was greater than 10 µM each time.
Turning to `COc1cccc(CC2NC(=O)CN(CCc3ccccc3)C2=O)c1I` (configuration not stated), the Ki is 5.11 µM in [1], greater than 10 µM in data set [2] and greater than 10 µM in data set [3]. In addition, the Ratio Ki in data set [6] and in [9] was greater than 1.9 in each case.
Take `COc1cccc(CC2NC(=O)CCN(Cc3ccccc3)C2=O)c1I` (configuration not stated): the Ki in data set [1], in data set [2] and in data set [3] was greater than 10 µM throughout.
`COc1cccc(CC2NC(=O)CN(CC=C(C)C)C2=O)c1I` (configuration not stated): the inhibition constant (Ki) in [1], in data set [2] and in data set [3] was greater than 10 µM throughout.
For the compound `COc1cccc(CC2NC(=O)CN(C)C2=O)c1I` (configuration not stated), the Ki in data set [1], in [2] and in [3] was greater than 10 µM in each case.
For the compound `COc1cccc(CC2NC(=O)[C@H](CC(C)C)NC2=O)c1I` (some centres not stated), the Ki in [1], in [2] and in data set [3] was greater than 10 µM throughout.
On to `COC(=O)C(Cc1cccc(C)c1I)NC(=O)CNCc1ccccc1` (configuration not stated), for which the half-life at 100 µM in data set [5] and in data set [7] was less than 1 min each time. For the same compound, the Ki in data set [1] is 0.123 µM; in data set [2] it was greater than 10 µM; in data set [3], greater than 10 µM. The Ratio Ki in data set [6] and in data set [9] was greater than 81 each time. Also, the t1/2 in data set [8] worked out at 2.4577 h; in data set [13] it was 3.8202 h. Also, in data set [10], the PPB is 97.86%. The Intrinsic clearance in [12] came out at 1889 µL/min/mg. The Pe in data set [4] was 21.5 10^-3cm/min.
Take `COc1cccc(CC2NC(=O)CN(Cc3ccccc3)C2=O)c1` (configuration not stated): the Ki in [1], in data set [2] and in data set [3] was greater than 10 µM in each case.
Take `COC(=O)C(Cc1cccc(OC)c1I)NC(=O)CCCc1ccccc1` (configuration not stated): the Ki in data set [1], in data set [2] and in data set [3] was greater than 10 µM in each case.
For `COC(=O)C(Cc1cccc(OC)c1I)NC(=O)CNCCc1ccccc1` (configuration not stated), the Ki is 0.802 µM in [1], greater than 10 µM in [2] and greater than 10 µM in data set [3]. Besides, the Ratio Ki in [6] and in data set [9] was greater than 12 each time.
In the case of `COC(=O)C(Cc1cccc(OC)c1)NC(=O)CN(Cc1ccccc1)C(=O)OC(C)(C)C` (configuration not stated) (Boc-[Nphe]-[ξPhe(3-OMe)]-OMe), the Ki in data set [1], in [2] and in data set [3] was greater than 10 µM in each case.
Take `COC(=O)C(Cc1cccc(OC)c1I)NC(=O)[C@@H](N)Cc1ccccc1` (mixture of isomers): the Ki in data set [1] was 2.17 µM; in data set [2], greater than 10 µM; in [3], greater than 10 µM. For the same compound, the Ratio Ki in [6] and in data set [9] was greater than 5 throughout.
On to `COC(=O)C(Cc1cccc(OC)c1I)NC(=O)CN(Cc1ccccc1)C(C)=O` (configuration not stated), for which the Ki in data set [1], in data set [2] and in [3] was greater than 10 µM in each case.
